Data taken from patent US20070128217A1 (priority 2003, published 2007).

Key:
[1] = system: rabbit serum obtained by immunizing a rabbit with the SARS-CoV strain Frankfurt 1; type: binding; parameters: Binding of a rabbit serum to linear peptides / Binding of a rabbit serum to looped peptides / Rabbit serum linear peptides / Rabbit serum looped peptides / Binding of a rabbit serum to linear peptides of protein N of SARS-CoV Urbani (Rabbit serum linear peptides) / Binding of a rabbit serum to looped/cyclic peptides of protein N of SARS-CoV Urbani (Rabbit serum looped peptides): unit not given here
[2] = system: antibodies in sera from SARS patients (sera 1a, 1b, 2, 6, 37, 62, London, SARS-yellow, SARS-green); type: binding, human; parameters: Binding of serum 6 to linear peptides of protein X1 of SARS-CoV Urbani / Binding of serum 37 to linear peptides of protein X1 of SARS-CoV Urbani / Binding of serum 6 to looped/cyclic peptide (PEPSCAN-ELISA) / Binding of serum 37 to looped/cyclic peptide (PEPSCAN-ELISA) / Binding of serum 37 to looped/cyclic peptides of protein X1 of SARS-CoV Urbani / Binding of serum 6 to linear peptides of protein X2 / Binding of serum 37 to linear peptides of protein X2 / Binding of serum 37 to looped/cyclic peptides of protein X2 of SARS-CoV Urbani / Binding of serum 6 to linear peptides of protein M of SARS-CoV Urbani / Binding of serum 37 to linear peptides of protein M of SARS-CoV Urbani / Binding of serum 6 to looped/cyclic peptides of protein M of SARS-CoV Urbani / Binding of serum 37 to looped/cyclic peptides of protein M of SARS-CoV Urbani / Binding of serum 6 to linear peptides of protein X3 of SARS-CoV Urbani / Binding of serum 37 to linear peptides of protein X3 of SARS-CoV Urbani / Binding of serum 37 to looped/cyclic peptides of protein X3 of SARS-CoV Urbani / Binding of serum 6 to linear peptides of protein X4 of SARS-CoV Urbani / Binding of serum 37 to linear peptides of protein X4 of SARS-CoV Urbani / Binding of serum 37 to looped/cyclic peptides of protein X4 of SARS-CoV Urbani / Binding of serum 6 to linear peptides of protein X5 of SARS-CoV Urbani / Binding of serum 37 to linear peptides of protein X5 of SARS-CoV Urbani / Binding of serum 37 to looped/cyclic peptides of protein X5 of SARS-CoV Urbani / Binding of serum 6 to linear peptides of protein N of SARS-CoV Urbani / Binding of serum 37 to linear peptides of protein N of SARS-CoV Urbani / Binding of serum 6 to linear peptide (PEPSCAN-ELISA) / Binding of serum 1a to looped/cyclic peptides of protein N of SARS-CoV Urbani / Binding of serum 1b to looped/cyclic peptides of protein N of SARS-CoV Urbani / Binding of serum 2 to looped/cyclic peptides of protein N of SARS-CoV Urbani / Binding of serum 6 to looped/cyclic peptides of protein N of SARS-CoV Urbani / Binding of serum 37 to looped/cyclic peptides of protein N of SARS-CoV Urbani / Binding of serum 62 to looped/cyclic peptides of protein N of SARS-CoV Urbani / Binding of serum London to looped/cyclic peptides of protein N of SARS-CoV Urbani / Binding of serum SARS-green to looped/cyclic peptides of protein N of SARS-CoV Urbani: unit not given here
[3] = system: control sera (pooled serum of ten healthy LUMC hospital workers; commercial negative donor pooled serum from the Dutch bloodbank); type: binding, human; parameters: Binding of Control serum LUMC to linear peptides / Binding of Control serum Blood-bank to linear peptides / Binding of Control serum LUMC to looped peptides / Binding of Control Serum Blood-Bank to Looped peptides / Binding of Control serum LUMC to linear peptides of the protein M of SARS-CoV Urbani / Binding of Control serum Blood-bank to linear peptides of the protein M of SARS-CoV Urbani / Binding of Control serum LUMC to looped peptides of the protein M of SARS-CoV Urbani / Binding of Control Serum Blood-Bank to Looped peptides of the protein M of SARS-CoV Urbani: unit not given here

NACRIIMRCWLCWKC was tested, and the “Recognition of the peptide by the rabbit serum” value [1] was “recognized”, the “Binding of serum 1a to looped/cyclic peptide (PEPSCAN-ELISA)” value [2] was 0.6 and the “Binding of serum 1b to looped/cyclic peptide (PEPSCAN-ELISA)” value [2] was 0.5. For the same sequence, the “Binding of serum 2 to looped/cyclic peptide (PEPSCAN-ELISA)” value [2] was 0.5, the “Binding of serum 6 to looped/cyclic peptide (PEPSCAN-ELISA)” value [2] was 0.6 and the “Binding of serum 37 to looped/cyclic peptide (PEPSCAN-ELISA)” value [2] was 0.5. The “Binding of serum 62 to looped/cyclic peptide (PEPSCAN-ELISA)” value [2] was 0.7, the “Binding of serum London to looped/cyclic peptide (PEPSCAN-ELISA)” value [2] was 0.3 and the “Binding of serum SARS-green to looped/cyclic peptide (PEPSCAN-ELISA)” value [2] was 0.3. For the same sequence, the “Binding of serum SARS-yellow to looped/cyclic peptide (PEPSCAN-ELISA)” value [2] was 0.4, the “Recognition of the peptide by sera of SARS-CoV infected individuals, and form (linear, looped/cyclic) in which it is recognized” value [2] was “recognized in linear form” and the “Binding of Control Serum Blood-Bank to Looped peptides” value [3] was 0.8. The “Binding of Control serum Blood-bank to linear peptides” value [3] was 1.0, the “Binding of Control serum LUMC to linear peptides” value [3] was 0.5 and the “Binding of Control serum LUMC to looped peptides” value [3] was 0.6.
With NKFALTCTSTHFAFA the “Rabbit serum linear peptides” value [1] was 0.5, the “Rabbit serum looped peptides” value [1] was 0.5 and the “Binding of serum 1a to linear peptides of protein X4 of SARS-CoV Urbani” value [2] was 0.6. For the same sequence, the “Binding of serum 1a to looped/cyclic peptides of protein X4 of SARS-CoV Urbani” value [2] was 0.9, the “Binding of serum 1b to linear peptides of protein X4 of SARS-CoV Urbani” value [2] was 0.5 and the “Binding of serum 1b to looped/cyclic peptides of protein X4 of SARS-CoV Urbani” value [2] was 0.4. For the same sequence, the “Binding of serum 2 to linear peptides of protein X4 of SARS-CoV Urbani” value [2] was 0.4, the “Binding of serum 2 to looped/cyclic peptides of protein X4 of SARS-CoV Urbani” value [2] was 0.8 and the “Binding of serum 6 to linear peptides of protein X4 of SARS-CoV Urbani” value [2] was 0.3. The “Binding of serum 6 to looped/cyclic peptides of protein X4 of SARS-CoV Urbani” value [2] was 0.6, the “Binding of serum 37 to linear peptides of protein X4 of SARS-CoV Urbani” value [2] was 0.7 and the “Binding of serum 37 to looped/cyclic peptides of protein X4 of SARS-CoV Urbani” value [2] was 0.7. For the same sequence, the “Binding of serum 62 to linear peptides of protein X4 of SARS-CoV Urbani” value [2] was 0.7, the “Binding of serum 62 to looped/cyclic peptides of protein X4 of SARS-CoV Urbani” value [2] was 0.9 and the “Binding of serum London to linear peptides of protein X4 of SARS-CoV Urbani” value [2] was 0.7. The “Binding of serum London to looped/cyclic peptides of protein X4 of SARS-CoV Urbani” value [2] was 0.3, the “Binding of serum SARS-green to linear peptides of protein X4 of SARS-CoV Urbani” value [2] was 0.4 and the “Binding of serum SARS-green to looped/cyclic peptides of protein X4 of SARS-CoV Urbani” value [2] was 0.8. The “Binding of serum SARS-yellow to linear peptides of protein X4 of SARS-CoV Urbani” value [2] was 0.5, the “Binding of serum SARS-yellow to looped/cyclic peptides of protein X4 of SARS-CoV Urbani” value [2] was 0.7 and the “Binding of Control Serum Blood-Bank to Looped peptides” value [3] was 0.9. The “Binding of Control serum Blood-bank to linear peptides” value [3] was 0.6, the “Binding of Control serum LUMC to linear peptides” value [3] was 0.5 and the “Binding of Control serum LUMC to looped peptides” value [3] was 0.8.
For NKRWQLALYKGFQFI, the “Recognition of the peptide by the rabbit serum” value [1] was “recognized”, the “Binding of serum 1a to linear peptides of protein X1 of SARS-CoV Urbani” value [2] was 0.7 and the “Binding of serum 1a to looped/cyclic peptide (PEPSCAN-ELISA)” value [2] was 0.6. The “Binding of serum 1b to linear peptides of protein X1 of SARS-CoV Urbani” value [2] was 0.5, the “Binding of serum 1b to looped/cyclic peptide (PEPSCAN-ELISA)” value [2] was 0.4 and the “Binding of serum 2 to linear peptides of protein X1 of SARS-CoV Urbani” value [2] was 0.7. The “Binding of serum 2 to looped/cyclic peptide (PEPSCAN-ELISA)” value [2] was 0.5, the “Binding of serum 6 to linear peptides of protein X1 of SARS-CoV Urbani” value [2] was 0.8 and the “Binding of serum 6 to looped/cyclic peptide (PEPSCAN-ELISA)” value [2] was 0.5. The “Binding of serum 37 to linear peptides of protein X1 of SARS-CoV Urbani” value [2] was 0.6, the “Binding of serum 37 to looped/cyclic peptide (PEPSCAN-ELISA)” value [2] was 0.6 and the “Binding of serum 62 to linear peptides of protein X1 of SARS-CoV Urbani” value [2] was 0.6. The “Binding of serum 62 to looped/cyclic peptide (PEPSCAN-ELISA)” value [2] was 0.7, the “Binding of serum London to linear peptides of protein X1 of SARS-CoV Urbani” value [2] was 0.3 and the “Binding of serum London to looped/cyclic peptide (PEPSCAN-ELISA)” value [2] was 0.4. The “Binding of serum SARS-green to linear peptides of protein X1 of SARS-CoV Urbani” value [2] was 0.3, the “Binding of serum SARS-green to looped/cyclic peptide (PEPSCAN-ELISA)” value [2] was 0.2 and the “Binding of serum SARS-yellow to linear peptides of protein X1 of SARS-CoV Urbani” value [2] was 0.3. The “Binding of serum SARS-yellow to looped/cyclic peptide (PEPSCAN-ELISA)” value [2] was 0.5, the “Binding of Control Serum Blood-Bank to Looped peptides” value [3] was 0.7 and the “Binding of Control serum Blood-bank to linear peptides” value [3] was 0.6. For the same sequence, the “Binding of Control serum LUMC to linear peptides” value [3] was 0.6 and the “Binding of Control serum LUMC to looped peptides” value [3] was 0.7.
NLDVIISSIVRQLFK was tested, and the “Rabbit serum linear peptides” value [1] was 0.3, the “Rabbit serum looped peptides” value [1] was 0.2 and the “Binding of serum 1a to linear peptides of protein X3 of SARS-CoV Urbani” value [2] was 0.7. The “Binding of serum 1a to looped/cyclic peptides of protein X3 of SARS-CoV Urbani” value [2] was 0.5, the “Binding of serum 1b to linear peptides of protein X3 of SARS-CoV Urbani” value [2] was 0.2 and the “Binding of serum 1b to looped/cyclic peptides of protein X3 of SARS-CoV Urbani” value [2] was 0.4. The “Binding of serum 2 to linear peptides of protein X3 of SARS-CoV Urbani” value [2] was 0.4, the “Binding of serum 2 to looped/cyclic peptides of protein X3 of SARS-CoV Urbani” value [2] was 0.5 and the “Binding of serum 6 to linear peptides of protein X3 of SARS-CoV Urbani” value [2] was 0.6. The “Binding of serum 6 to looped/cyclic peptides of protein X3 of SARS-CoV Urbani” value [2] was 0.8, the “Binding of serum 37 to linear peptides of protein X3 of SARS-CoV Urbani” value [2] was 0.6 and the “Binding of serum 37 to looped/cyclic peptides of protein X3 of SARS-CoV Urbani” value [2] was 0.5. The “Binding of serum 62 to linear peptides of protein X3 of SARS-CoV Urbani” value [2] was 0.6, the “Binding of serum 62 to looped/cyclic peptides of protein X3 of SARS-CoV Urbani” value [2] was 0.4 and the “Binding of serum London to linear peptides of protein X3 of SARS-CoV Urbani” value [2] was 0.7. For the same sequence, the “Binding of serum London to looped/cyclic peptides of protein X3 of SARS-CoV Urbani” value [2] was 1.8, the “Binding of serum SARS-green to linear peptides of protein X3 of SARS-CoV Urbani” value [2] was 0.3 and the “Binding of serum SARS-green to looped/cyclic peptides of protein X3 of SARS-CoV Urbani” value [2] was 0.2. For the same sequence, the “Binding of serum SARS-yellow to linear peptides of protein X3 of SARS-CoV Urbani” value [2] was 0.3, the “Binding of serum SARS-yellow to looped/cyclic peptides of protein X3 of SARS-CoV Urbani” value [2] was 0.6 and the “Binding of Control Serum Blood-Bank to Looped peptides of the protein X3 of SARS-CoV Urbani” value [3] was 0.8. The “Binding of Control serum Blood-bank to linear peptides of the protein X3 of SARS-CoV Urbani” value [3] was 0.8, the “Binding of Control serum LUMC to linear peptides of the protein X3 of SARS-CoV Urbani” value [3] was 0.6 and the “Binding of Control serum LUMC to looped peptides of the protein X3 of SARS-CoV Urbani” value [3] was 0.8.
